Reference: US10857167B2, “Use of oligosaccharide compositions to enhance weight gain” (Children's Hospital Medical Center, priority 2015, dated 2020)

Tested on: TFF3, MUC2, DEFA5, ZO-1, HSPA1A, Reg3b, Reg3g
Assay: Expression of genes relative to β-Actin in pre-operative and post-ICR mice
Format: in vivo, mouse
Conditions: post-ICR with 2′ FL supplementation

SMILES: C[C@@H]1O[C@@H](O[C@H]2[C@H](O[C@H]3[C@H](O)[C@@H](O)C(O)O[C@@H]3CO)O[C@H](CO)[C@H](O)[C@@H]2O)[C@@H](O)[C@H](O)[C@@H]1O (stereo partly shown) [2′-FL, 2′-fucosyllactose]
- expression of genes TFF3, DEFA5, HSPA1A, Reg3b, and Reg3g relative to β-Actin: increased expression
